Test results published in US12637498B2, “PDLIM2 as a biomarker for cancer and as an anti-cancer treatment target” (UNIVERSITY OF PITTSBURGH—OF THE COMMONWEALTH SYSTEM OF …, priority 2019, dated 2026).
Entries after “also recorded” stand apart in the source; their conditions may differ.

Key:
[1] = test system: PDLIM2; assay: qPCR analysis of PDLIM2 expression in human lung cancer cell lines; format: cell-based
[2] = test system: PDLIM2; assay: qPCR of PDLIM2 in RAW264.7 macrophages; format: cell-based, mouse
Text: The indicated tissues or cells were subjected to RNA extraction, RNA reverse transcription and real-time PCR using trizol, reverse transcriptase, and Power SYBR Green PCR Master Mix (Thermo Fisher Scientific, Waltham, MA USA).

[3] = test system: BACH1; assay: ChIP and nuclear fraction IB of BACH1 in RAW264.7 macrophages; format: cell-based, mouse
Protocol: Cells were collected after formaldehyde treatment. The chromatin DNA was extracted, broken into fragments of 300-1000 bp in length by sonication, and immunoprecipitated with antibodies to the target. IgG was used in immunoprecipitation as a control for nonspecific signal. DNA in the immunoprecipitation product was amplified by PCR.
Whole-cell extracts were prepared by lysing cells in RIPA buffer. Nuclear extracts were prepared by lysing pellets in insoluble nuclear buffer (20 mM Tris, pH 8.0, 150 mM NaCl, 1% [wt/vol] SDS, 1% [vol/vol] NP-40, and 10 mM iodoacetamide) after the cytoplasm was extracted with the hypotonic buffer (20 mM HEPES, pH 8.0, 10 mM KCl, 1 mM MgCl2, 0.1% [vol/vol] Triton X-100, and 20% [vol/vol] glycerol). The purity of the nuclear fractions was confirmed by checking Hsp90 (cytoplasm) or lamin B/C (nuclear fraction). All the lysis buffers were supplemented with 1 mM PMSF and a protease inhibitor cocktail (Roche Molecular Biochemicals). The cell extracts were used for […]. Briefly, the cell extracts were separated on polyacrylamide gels followed by electrotransfer onto nitrocellulose membranes. […] Specific immune complexes were detected by enhanced chemiluminescence as specified by the manufacturer (Western Lightning ECL Pro; Amersham).

[4] = test system: lung cancer induced by urethane; assay: Urethane model of lung cancer, tumor examination; format: in vivo, mouse; conditions: for tumor number and tumor burden: WT mice, carboplatin and paclitaxel together
Protocol: (§1) Urethane model: 6-8-week-old mice under FVB/N background were intraperitoneally (i.p.) injected with urethane (1 g/kg body weight, Sigma-Aldrich, St. Louis, MO, USA) once a week for six weeks. All mice were sacrificed for lung tumor examinations seven (for no drug treatment experiments) or six (for drug treatment experiments) weeks post urethane treatment. For drug treatment experiments, the epigenetic agents 5-aza-dC (1 mg/kg body weight, Sigma-Aldrich, St. Louis, MO, USA) and MS-275 (1 mg/kg body weight, Selleckchem, Houston, TX, USA), chemotherapeutic drugs carboplatin (30 mg/kg body weight, AdipoGen, San Diego, CA, USA) and paclitaxel (15 mg/kg body weight, AdipoGen, San Diego, CA, USA), and/or PD-1 neutralizing antibody (200 μg/mouse, BioXCell, West Lebanon, NH, USA) were i.p injected as indicated in FIG. 4. Surface tumors in mouse lungs were counted by three blinded readers under a dissecting microscope, and tumor diameters were measured by microcalipers. K-Ras^G12D model: 6-8-week-old mice under FVB/N background were intranasally administered 1×10^7 plaque-forming units of Cre-expressing adenovirus (adenocre; Gene Transfer Vector Core, University of Iowa, Iowa City, IA). Three months post AdenoCre treatment, all mice were sacrificed for lung tumor examinations.
PDLIM2flx/flx/SP-C-rtTAtg/−/(tetO)7CMV-Cretg/tg (ΔSPC) mice under a pure FVB/N background and PDLIM2−/− mice under a pure BABL/C background have been described before (Sun et al., Nat. Commun. 2019. 10, 5324). For lung carcinogenesis, six to eight week old ΔSPC and wild type FVB/N mice were intraperitoneally (i.p.) injected with urethane (1 mg/g body weight, Sigma-Aldrich, St. Louis, MO, USA) once a week for six consecutive weeks, followed by different treatment as shown in FIGS. 45A and 49A. Mice were sacrificed for lung inflammation and tumor examinations at six weeks post urethane treatment. Surface tumors in mouse lungs were counted blinded under a dissecting microscope, and tumor diameters were measured by microcalipers. […]

[5] = test system: PD-L1; assay: qPCR of PD-L1 in lung cancer cells; format: cell-based, human
Text: Mouse lung tissues and BAL cells were subjected to RNA extraction, RNA reverse transcription and real-time PCR as described (Li et al., Oncoimmunology 7, e1435250 (2018); Sun et al., Bio. Protoc. 7, pii: e2287 (2017)).

[6] = test system: PD-L1; assay: IHC staining of PD-L1 in lung cancer (urethane model); format: in vivo, mouse; conditions: carboplatin and paclitaxel (chemotherapy)
Protocol: as §1
Mouse or tissues were excised, fixed in formalin, embedded in paraffin, and cut into […] sections. Sections were stained with H&E, or subjected to sequential incubations with different primary antibodies and peroxidase-conjugated goat anti-rabbit secondary antibodies. The human lung tumor tissue arrays were described previously (Sun et al., Oncogene 35, 2299-2310 (2016)).
Lung tissues were excised, fixed in formalin, embedded in paraffin, and cut into 4-μm-thick sections. Sections were stained with H&E, or subjected to sequential incubations with the indicated primary antibodies, biotinylated secondary antibodies and streptavidin-HRP.

[7] = test system: BACH1; assay: IF analysis of BACH1 nuclear translocation in AMs of mice with lung tumors; parameters: species or system mouse; conditions: mice with lung tumors (urethane); in vivo treatment, 5 mg/ml in drinking water
Protocol: (§2) The animal experiments were performed in accordance with the US National Institutes of Health (NIH) Guidelines on the Use of Laboratory Animals. All animals were maintained under pathogen-free conditions. […], […] and Lysozyme M-Cre mice have been described before (Sun et al., Nat Commun 2019; 10:5324; Zhou et al., Oncogene 2015; 34:3804-3814; Zhou et al., Cancer Immunol Res 2017; 5:257-268; Li et al., Oncoimmunology 2018; 7:e1435250). Luciferase-expressing mice, PD-1 deficient mice and CD80/CD86 deficient mice were purchased from The Jackson Laboratory. Except for the PD-1 deficient mice and CD80/CD86 deficient mice, which are under […] background, all other mice were backcrossed to FVB/N mice (The Jackson Laboratory) for more than ten generations, and then used to generate the experimental mice. […] Louis, MO, USA) once a week for six consecutive weeks (8-10). […] Surface tumors in mouse lungs were counted by three blinded readers under a dissecting microscope, and tumor diameters were measured by microcalipers. […] Stained proteins and their subcellular localizations were detected using a fluorescence microscope.

[8] = test system: PDLIM2; assay: qPCR and IF of PDLIM2 in AMs of mice with lung tumors; parameters: species or system mouse; conditions: mice with lung tumors (urethane); in vivo treatment
Protocol: as §2, with “microscope. […]” for “microscope.”

[9] = Toxicity: animal body weight and H&E staining of major organs; format: in vivo, mouse; conditions: mice with lung cancer; 1 mg/kg of 5-aza-dC and MS-275 twice per week for 6 weeks
[10] = test system: human lung cancer cells; assay: Cell growth assays; format: cell-based
Protocol: Cells were seeded into 12-well plates at a density of 5,000 cells per well, in the presence or absence of the indicated treatment. Cell density was determined by replacing the medium with 2 μmol/L of calcein AM in 1× dissociation solution (Trevigen) at the indicated time points. After 1 h of incubation, diesterase activity (relative fluorescence units) was measured with a Tecan Infinite 200 Microplate Reader, using an excitation wavelength of 485 nm and emission wavelength of 520 nm.

[11] = test system: MDR1; assay: qPCR of MDR1 in A549 lung cancer cells; format: cell-based, human; conditions: with or without PDLIM2 reconstitution
[12] = test system: RelA; assay: Subcellular fraction-IB assay of nuclear RelA in lung cancer cells; format: cell-based, human; conditions: for RelA activation: lung cancer cells
[13] = ΔSPC mice vs WT, carboplatin and paclitaxel combination therapy (Chemo)
[14] = ΔSPC mice, PD-1 blockade combined with carboplatin/paclitaxel chemotherapy

Question: Which “PDLIM2 expression (qPCR)” value ([1]; H460 human lung cancer cells) does the source give for `CC(/C=C/C(=O)NO)=C\[C@@H](C)C(=O)c1ccc(N(C)C)cc1` [TSA, Trichostatin A] here?
Answer: The value was “PDLIM2 recovery”.

Question: What about the “PDLIM2 expression (qPCR)” value ([1]; human lung cancer cell lines) of the same compound?
Answer: Its value is “induced PDLIM2 re-expression”.

Question: With `OO` [H2O2] as the compound, how does the “PDLIM2 expression (qPCR)” value ([2]; RAW264.7 macrophages treated with H2O2) read?
Answer: Its value is “PDLIM2 expression decrease; also recorded: decreased PDLIM2”.

Question: And the “nuclear BACH1 (nuclear fraction IB)” value ([3]; RAW264.7 macrophages)?
Answer: The value was “induced BACH1 nuclear translocation; also recorded: increased nuclear BACH1”.

Question: What about the “BACH1 and Pol II bound to the pdlim2 promoter (ChIP)” value ([3]; RAW264.7 mouse macrophages, 500 μM, 4 hours) of the same compound?
Answer: Its value is “detected BACH1 at the BACH1-binding site; also recorded: more BACH1 but less Pol II bound to the pdlim2 promoter”.

Question: For `N.N.O=C([O-])C1(C(=O)[O-])CCC1.[Pt+2]` [carboplatin], which “tumor number and tumor burden” value [4] is on record?
Answer: Its value is “significant decrease in tumor number and tumor burden”.

Question: And the “lung cancer treatment (tumor examination)” value [4, 13]?
Answer: Its value is “more resistant; also recorded: increased resistance”.

Question: And the “lung cancer treatment (tumor examination)” value [4, 14]?
Answer: The value was “resistant; also recorded: more resistant”.

Question: And the “PD-L1 expression (qPCR)” value ([5]; Calu-6 human lung cancer cells)?
Answer: The value was “PD-L1 induction”.

Question: And the “PD-L1 expression (qPCR)” value ([5]; lung cancer cells)?
Answer: The value was “PD-L1 induction”.

Question: And the “PD-L1 expression in lung cancer (IHC staining)” value [6]?
Answer: The value was “PD-L1 induction”.

Question: With `CC(=O)N[C@@H](CS)C(=O)O` [NAC, N-Acetyl-L-cysteine] as the compound, how does the “PDLIM2 expression (qPCR)” value ([2]; RAW264.7 macrophages in LLC lung tumor cell co-culture) read?
Answer: The value was “could block the PDLIM2 suppression; also recorded: recovery”.

Question: What about the “BACH1 nuclear translocation in AMs (IF)” value [7] of the same compound?
Answer: Its value is “could efficiently be blocked; also recorded: inhibition of BACH1 nuclear translocation”.

Question: What about the “PDLIM2 in AMs (IF)” value [8] of the same compound?
Answer: The value was “PDLIM2 induction”.

Question: And the “PDLIM2 in AMs (qPCR)” value [8]?
Answer: Its value is “could efficiently be blocked; also recorded: increased PDLIM2”.

Question: Which animal body weight [9] does the source give for `Nc1ncn([C@H]2C[C@H](O)[C@@H](CO)O2)c(=O)n1` [5-aza-dC, 5-azadeoxycitidine] here?
Answer: The animal body weight was “body weight loss”.

Question: What does the source list for `CC(=O)O[C@H]1C(=O)[C@@]2(C)[C@H]([C@H](OC(=O)c3ccccc3)[C@]3(O)C[C@H](OC(=O)[C@H](O)[C@@H](NC(=O)c4ccccc4)c4ccccc4)C(C)=C1C3(C)C)[C@]1(OC(C)=O)CO[C@@H]1C[C@@H]2O` [paclitaxel]?
Answer: tumor number and tumor burden [4]: significant decrease in tumor number and tumor burden; lung cancer treatment (tumor examination) [4, 13]: more resistant; also recorded: increased resistance; lung cancer treatment (tumor examination) [4, 14]: resistant; also recorded: more resistant; paclitaxel sensitivity (cell growth assays) ([10]; A549 cells with PDLIM2 reconstitution, consecutive 9-day paclitaxel cycles): increased paclitaxel sensitivity; paclitaxel sensitivity (cell growth assays) ([10]; H460 cells with PDLIM2 reconstitution, consecutive 9-day paclitaxel cycles): increased paclitaxel sensitivity; paclitaxel sensitivity (cell growth assays) ([10]; H460 human lung cancer cells with stable IκBα expression): overcame the paclitaxel resistance; also recorded: increased paclitaxel sensitivity; acquired resistance to paclitaxel ([10]; lung cancer cells with ectopic PDLIM2 expression): overcame the acquired resistance; also recorded: block acquired resistance; PD-L1 expression (qPCR) ([5]; lung cancer cells): PD-L1 induction; PD-L1 expression in lung cancer (IHC staining) [6]: PD-L1 induction; MDR1 expression (qPCR) [11]: PDLIM2 suppressed paclitaxel induction of MDR1; nuclear RelA (subcellular fraction-IB) ([12]; H460 human lung cancer cells reconstituted with PDLIM2): much lower paclitaxel induction of nuclear RelA; RelA activation [12]: further induced; RelA activation ([12]; listed as Paclitaxel): increased RelA activation
